The source of these data is US20200352912A1, “ANTIMICROBIAL COMPOSITIONS AND METHODS OF USING THE SAME” (The Board Of Supervisors Of Louisiana State University And …, priority 2018, published 2020).

The test system of test [1] is S. aureus. In words: cell membrane integrity by viability (Live/Dead) staining. The conditions noted are these: 6 h incubation. Type of test: cell-based, Staphylococcus aureus. The text has this: To determine the mechanism of action of L-161, 982 against growth of Gram-positive bacteria, we first looked at its effect on cell membrane integrity using viability staining. […] A previous study had reported that the inhibitory effect of L-161, 982 on the proliferation of skeletal muscle myoblasts was due to its ability to induce production of high levels of intracellular reactive oxygen species (ROS) that could be reversed by co-treatment with the antioxidants, N-acetyl cysteine or sodium ascorbate (25).
Although the prostanoid pathway is not conserved in prokaryotes, we questioned whether L-161, 982 inhibited S. aureus growth by increasing intracellular ROS production. […] Future studies will examine other possible mechanisms of action.

Test [2] relates to mouse primary myoblasts. The note with it: cited from earlier work.
Test [3] has as its system S. aureus mono-species biofilm. In words: biofilm formation on polystyrene (XTT, CFU). The class given is cell-based, Staphylococcus aureus. How it is done:
The effect of L-161,982 on biofilm formation was tested. Mono- and dual-species C. albicans and/or S. aureus biofilms were grown on 96-well plates for 24 h with the indicated concentration of L-161, 982. After incubation, metabolic activity of biofilms was quantified by the XTT assay (A) and then biofilms were disrupted to determine live colony forming units (CFU) (B). The results are cumulative of three independent experiments with duplicate samples. Statistics was performed using One-way ANOVA with the Tukey post-hoc test for the XTT assay. The Mann-Whitney U test was used to analyze CFU data. Significance is indicated as follows: ns—not significant, *P<0.05; *** P<0.001. Error bars represent standard deviation.
(§1) Following growth as described above, microbes were washed in phosphate-buffered saline (PBS) by centrifugation, counted on a hemocytometer, and adjusted to 2×10^7 CFU/ml in RPMI buffered with MOPS (165 mM). For monomicrobial biofilms, 50 μl of adjusted C. albicans or S. aureus culture was added to each well of a sterile 96-well cell culture polystyrene microtiter plate (1×10^6 CFU per well); to this, 50 μl of sterile RPMI+MOPS was added. For polymicrobial biofilms, 50 μl of each organism was added per well (1×10^6 CFU of each organism per well). Plates were incubated for 24 h at 37° C. to induce biofilm formation. Following confirmation of mature biofilm growth by macro- and microscopic examination, plates were washed once with 200 μl sterile saline and then 200 μl RPMI+MOPS containing L-161, 982 at various concentrations (6.25-200 μg/ml) added to each well. L-161, 982-free RPMI+MOPS was added to wells with and without microbes to serve as positive and negative controls, respectively. […]
(§2) The XTT reduction assay was used to determine the metabolic activity of biofilms following treatment with L-161, 982 (17). Briefly, wells were washed once in PBS, and plates incubated at 37° C. for 2 h with 200 μl XTT working reagent (0.5 mg/ml XTT and 1 μM Menadione) and the resulting absorbance measured at 490 nm on a microplate spectrophotometer. […]

The subject of test [4] is S. aureus pre-formed mono-species biofilm. In words: pre-formed mature biofilm (XTT, CFU). Type of test: cell-based, Staphylococcus aureus. How it is done: The effect of L-161, 982 on pre-formed mature biofilms was tested. Mono- and dual-species C. albicans and/or S. aureus biofilms were grown on 96-well plates for 24 h before being treated with the indicated concentration of L-161, 982 for a further 24 h. After treatment, metabolic activity of biofilms was quantified by the XTT assay (A) and then biofilms were disrupted to determine live colony forming units (CFU) (B). The results are cumulative of three independent experiments with duplicate samples. Statistics were performed using One-way ANOVA with the Tukey post-hoc test for the XTT assay. The Mann-Whitney U test was used to analyze CFU data. Significance is indicated as follows: ns—not significant, *P<0.05; *** P<0.001. Error bars represent standard deviation.
as §1, with “well.” for “well. L-161, 982-free RPMI+MOPS was added to wells with and without microbes to serve as positive and negative controls, respectively.”
as §2

Test [5] has as its system PGE2-stimulated bone formation. The note with it: 10 mg/kg/day, young rats; cited from earlier work.
In test [6] the test system is S. aureus NRS383. In words: planktonic antimicrobial assay (OD600 growth). The conditions noted are these: 100 μg/ml (inhibitor-specific concentrations b175), OD600 up to 24 h. Type of test: cell-based, Staphylococcus aureus. How it is done:
Effect of COX enzyme inhibitors or PGE2 EP receptor antagonists on microbial growth. The antimicrobial activity of selective COX enzyme inhibitor or PGE2 EP receptor antagonist on the growth of C. albicans DAY185 (A), S. aureus NRS383 (B) and MRSA and MSSA clinical isolates (C). Growth of C. albicans and S. aureus was monitored for up to 24 h in medium alone or supplemented with DMSO or EP receptor antagonists or COX enzyme inhibitor at physiologically relevant concentrations. Data shown are representative of three independent experiments.
C. albicans and S. aureus were grown as described above. […] Cells were grown with shaking as described above, and 1 ml aliquots were removed each hour in duplicate and optical density at 600 nm measured (OD600) by spectrophotometer (Biomate 3S, Thermo Scientific).

In the case of `CCCCc1nn(-c2ccccc2C(F)(F)F)c(=O)n1Cc1ccc(-c2ccccc2S(=O)(=O)NC(=O)c2sccc2C)cc1` [L-161, 982, N-[[4′-[[3-Butyl-1,5-dihydro-5-oxo-1-[2-(trifluoromethyl)phenyl]-4H-1,2,4-triazol-4-yl]methyl][1,1′-biphenyl]-2-yl]sulfonyl]-3-methyl-2-thiophenecarboxamide], the cell membrane damage result in test [1] is given as “no evidence of cell membrane damaged”. Further, the “proliferation of mouse primary myoblasts” value in test [2] is given as “inhibit proliferation”. For the same compound, the “CFUs of S. aureus, biofilm formation” value is “significantly reduced” in test [3] (6.25 to 25 μg/ml) and “no viable cells were recovered” in test [3] (concentrations >50 μg/ml). Further, in test [3] (all concentrations tested, 24 h), the “metabolic activity (XTT) during biofilm formation” value is “significantly inhibited”. The “concentration required to weaken pre-formed mature biofilms” value in test [4] was 100 µg/mL. The “CFUs recovered from pre-formed biofilm” value in test [4] (100 and 200 μg/ml) is “no CFUs were recovered”. For the same compound, in test [4] (all concentrations tested, 24 h treatment), the “metabolic activity of pre-formed biofilm” value is “no significant inhibitory effects”. For the same compound, the “effect on PGE2-stimulated bone formation” value in test [5] is “suppresses”. Also, the “growth of S. aureus” value in test [6] is on record as “significant inhibitory effect”.
